Data on 3 molecules can be found in BindingDB's records for doi:10.1038/sj.mp.4000336 (University of Toronto, 1998).

The experiment addresses 5-hydroxytryptamine receptor 2A (Rattus norvegicus, UniProt P14842).

SMILES strings stand for the structures.

Sequence of 5-hydroxytryptamine receptor 2A (P14842 whole entry): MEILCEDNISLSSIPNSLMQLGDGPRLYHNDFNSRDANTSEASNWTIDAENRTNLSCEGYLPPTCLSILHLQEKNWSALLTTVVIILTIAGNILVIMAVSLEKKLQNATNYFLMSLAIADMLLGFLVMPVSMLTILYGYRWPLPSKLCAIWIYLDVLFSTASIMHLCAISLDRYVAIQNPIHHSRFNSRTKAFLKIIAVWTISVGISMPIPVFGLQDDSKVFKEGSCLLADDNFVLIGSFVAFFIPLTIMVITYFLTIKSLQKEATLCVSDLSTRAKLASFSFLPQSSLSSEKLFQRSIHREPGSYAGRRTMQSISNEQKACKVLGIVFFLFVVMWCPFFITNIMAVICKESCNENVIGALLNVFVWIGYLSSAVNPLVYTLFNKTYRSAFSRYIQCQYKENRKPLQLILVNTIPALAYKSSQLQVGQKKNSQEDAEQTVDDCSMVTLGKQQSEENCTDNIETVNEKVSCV

A word on the Ki: it is the dissociation constant of the complex between target and ligand, obtained from inhibition or displacement. Low values mean higher affinity, high ones lower affinity. Molecule `CCN1CCC[C@H]1CNC(=O)c1c(O)c(Cl)cc(Cl)c1OC` [3,5-Dichloro-N-(1-ethyl-pyrrolidin-2-ylmethyl)-2-hydroxy-6-methoxy-benzamide (raclopride)] gave a Ki of 4 µM.

Turning to `CCN1CCC[C@H]1CNC(=O)c1c(OC)ccc(Br)c1OC`, the Ki turned out to be 5.2 µM. For `O=C1C2CCCCC2C(=O)N1CCCCN1CCN(c2nsc3ccccc23)CC1` (stereo not drawn) [NSC_115368], the Ki came to 0.0013 µM.
